Measurements from US10647688B2, “Compounds, synthesis method thereof and use of same in medicine and in cosmetics” (GALDERMA RESEARCH & DEVELOPMENT, priority 2014, dated 2020).
pEC50: −log10 of the molar value.

Experiments:
Format in all cases: cell-based
RARγ = biological target: T1, RARγ (Homo sapiens, UniProt P13631); assay: Transactivation reporter test (luciferase) in HeLa ERE Luc-hRAR cells, RARγ; details: for pEC50: HeLa ERE Luc-hRAR cells, dose-response 10000 nM-0.04 nM, 18 hours incubation; for RARγ Comments: agonist type (total/partial); for RARγ Efficacy (%): normalized to basal control and maximum efficacy control CD0193 100 nM
T1 construct: expressed in transfected cells; line from Prof; Ballaguer, INSERM 439, Montpellier
T1 sequence (P13631 185-419 limits assumed): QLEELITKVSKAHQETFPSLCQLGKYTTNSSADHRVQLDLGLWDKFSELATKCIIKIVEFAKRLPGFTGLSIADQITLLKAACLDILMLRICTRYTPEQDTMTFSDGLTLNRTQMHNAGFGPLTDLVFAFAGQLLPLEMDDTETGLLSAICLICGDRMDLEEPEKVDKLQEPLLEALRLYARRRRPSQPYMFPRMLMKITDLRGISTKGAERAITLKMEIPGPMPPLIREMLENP
Description: (§1) The activity of our molecules on the RAR is measured using a recombinant line expressing the ligand-biding domain (LBD) of RAR fused with the DNA binding domain (DBD) of the estrogen receptors. The specific transactivation of the receptor on the receptor estrogen response element (ERE) leads to transcription of luciferase. The expression of this reporter gene is quantified by luminescence after addition of its substrate, luciferin.
(§2) This line was produced by Prof. Ballaguer (INSERM 439, Montpellier) after stable transfection of HeLa by ERE-βGlob-Luc-SV-Neo and RAR(α, β, γ)-ER-DBD-puro plasmids.
(§3) The compounds are evaluated by dose-response (10000 nM-0.04 nM) normalized relative to a basal control and a maximum efficacy control (CD0193, reference agonist with 100 nM saturating concentration): Y=((X−0%)/(100%−0%))*100.
(§4) The affinity (EC50 in nM) and efficacy (in %) are measured using the XLfit (IDBS) software according to a four-parameter nonlinear regression (model 205).
(§5) HeLa ERE Luc-hRAR cells are inoculated on 96 well microplates (10,000 cell/100 μL). After 4 hours of incubation at 37° C./5% CO2, they are treated with 5 μL of 20× products (0.1 final DMSO).

RARα = biological target: T2, RARα (Homo sapiens, UniProt P10276); assay: Transactivation reporter test (luciferase) in HeLa ERE Luc-hRAR cells, RARα; details: for pEC50: HeLa ERE Luc-hRAR cells, dose-response 10000 nM-0.04 nM, 18 hours incubation; for RARα Comments: agonist type (total/partial); for RARα Efficacy: normalized to basal control and maximum efficacy control CD0193 100 nM
T2 construct: expressed in transfected cells; line from Prof; Ballaguer, INSERM 439, Montpellier
T2 sequence (P10276 183-417 limits assumed): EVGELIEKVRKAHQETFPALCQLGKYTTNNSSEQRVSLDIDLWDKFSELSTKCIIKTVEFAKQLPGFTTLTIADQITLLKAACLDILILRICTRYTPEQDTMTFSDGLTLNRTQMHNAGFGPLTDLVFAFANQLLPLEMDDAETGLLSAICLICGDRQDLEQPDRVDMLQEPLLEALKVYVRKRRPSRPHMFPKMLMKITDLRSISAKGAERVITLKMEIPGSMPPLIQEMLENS
Description: as §1, §2, §3, §4, §5

RARβ = biological target: T3, RARβ (Homo sapiens, UniProt P10826); assay: Transactivation reporter test (luciferase) in HeLa ERE Luc-hRAR cells, RARβ; details: for pEC50: HeLa ERE Luc-hRAR cells, dose-response 10000 nM-0.04 nM, 18 hours incubation; for RARβ Comments: agonist type (total/partial); for RARβ Efficacy (%): normalized to basal control and maximum efficacy control CD0193 100 nM
T3 construct: expressed in transfected cells; line from Prof; Ballaguer, INSERM 439, Montpellier
T3 sequence (P10826 183-417 limits assumed): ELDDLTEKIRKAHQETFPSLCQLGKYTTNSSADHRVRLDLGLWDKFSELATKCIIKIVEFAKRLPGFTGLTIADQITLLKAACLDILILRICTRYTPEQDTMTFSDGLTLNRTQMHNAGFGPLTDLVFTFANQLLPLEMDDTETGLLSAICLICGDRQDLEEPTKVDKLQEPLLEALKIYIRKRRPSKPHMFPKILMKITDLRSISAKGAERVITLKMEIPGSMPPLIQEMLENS
Description: as §1, §2, §3, §4, §5

| pEC50 (RARγ) | RARγ Comments (RARγ) | RARγ Efficacy (%) (RARγ) | pEC50 (RARα) | RARα Comments (RARα) | RARα Efficacy (RARα) [%] | pEC50 (RARβ) | RARβ Comments (RARβ) | RARβ Efficacy (%) (RARβ) | SMILES |
| --- | --- | --- | --- | --- | --- | --- | --- | --- | --- |
| 8.03 | Total | 96 | 6.59 | Total | 105 | 8.42 | Total agonist | 92 | CCOc1ccc(-c2noc(-c3ccc(C(=O)O)cc3)n2)cc1C(C)(C)C [4-[3-(3-tert-butyl-4-ethoxy-phenyl)-[1,2,4]oxadiazol-5-yl]-benzoic acid] |
| 8.00 | Total | 88 | 6.19 | Total | 104 | 8.21 | Total agonist | 95 | CCOCOc1ccc(-c2noc(-c3ccc(C(=O)O)cc3)n2)cc1C(C)(C)C [4-[3-(3-tert-butyl-4-ethoxymethoxy-phenyl)-[1,2,4]oxadiazol-5-yl]-benzoic acid] |
| 8.62 | Total | 110 | 6.97 | Total | 106 | 8.52 | Total agonist | 110 | CC(C)(C)c1cc(-c2noc(-c3ccc(C(=O)O)cc3)n2)ccc1O [4-[3-(3-tert-butyl-4-hydroxy-phenyl)-[1,2,4]oxadiazol-5-yl]-benzoic acid] |
| 7.18 | partial agonist | 40 | 6.96 | partial agonist | 53 | 6.79 | partial agonist | 46 | COc1ccc(-c2cnc(-c3ccc(C(=O)O)cc3)s2)cc1C(C)(C)C [4-[5-(3-tert-butyl-4-methoxy-phenyl)-thiazol-2-yl]-benzoic acid] |
| 9.05 | Total | 102 | 7.05 | Total | 80 | 9.25 | Total agonist | 107 | CCOCOc1ccc(-c2noc(-c3ccc(C(=O)O)cc3)n2)cc1C1(C)CCCCC1 [4-{3-[4-ethoxymethoxy-3-(1-methyl-cyclohexyl)-phenyl]-[1,2,4]oxadiazol-5-yl}-benzoic acid] |
| 5.99 | Total | 74 | 5.50 | Total | 68 | 6.20 | Total agonist | 90 | CCCOc1ccc(-c2cnc(-c3ccc(C(=O)O)cc3)s2)cc1C1(C)CCCCC1 [4-{5-[3-(1-methyl-cyclohexyl)-4-propoxy-phenyl]-thiazol-2-yl}-benzoic acid] |

| SMILES | pEC50 (RARγ) | RARγ Comments (RARγ) | RARγ Efficacy (%) (RARγ) | pEC50 (RARα) | RARα Comments (RARα) | RARα Efficacy (RARα) [%] | pEC50 (RARβ) | RARβ Comments (RARβ) | RARβ Efficacy (%) (RARβ) |
| --- | --- | --- | --- | --- | --- | --- | --- | --- | --- |
| CC1(C)CCC(C)(C)c2cc(-c3cnc(-c4ccc(C(=O)O)cc4)s3)ccc21 [4-[5-(5,5,8,8-tetramethyl-5,6,7,8-tetrahydro-naphthalen-2-yl)-thiazol-2-yl]-benzoic acid] | 6.79 | Total | 78 | 5.01 | Total | 64 | 7.28 | Total agonist | 110 |
